Measured values as given in PMC12903969, “Discovery of a Novel and Potent Kir4.1 Inhibitor as a Safe and Rapid‐Onset Antidepressant Agent in Mice” (Advanced Science, 2025).
Values joined by “and” are separate entries in the source; they are usually repeats but may differ in a detail not shown here. Equal entries are not always repeated. Where two headings read alike, the source gives them in different places.

How the values were obtained:
[1] = target: T1, GluN1/GluN2B NMDA receptor (Homo sapiens, UniProt Q05586+Q13224); experiment: Patch clamp of GluN1/GluN2B NMDA receptors in stable HEK293T cells; type: cell-based
T1 construct: expressed in transfected cells
T1 sequence (Q13224 27-1484, other chains not shown): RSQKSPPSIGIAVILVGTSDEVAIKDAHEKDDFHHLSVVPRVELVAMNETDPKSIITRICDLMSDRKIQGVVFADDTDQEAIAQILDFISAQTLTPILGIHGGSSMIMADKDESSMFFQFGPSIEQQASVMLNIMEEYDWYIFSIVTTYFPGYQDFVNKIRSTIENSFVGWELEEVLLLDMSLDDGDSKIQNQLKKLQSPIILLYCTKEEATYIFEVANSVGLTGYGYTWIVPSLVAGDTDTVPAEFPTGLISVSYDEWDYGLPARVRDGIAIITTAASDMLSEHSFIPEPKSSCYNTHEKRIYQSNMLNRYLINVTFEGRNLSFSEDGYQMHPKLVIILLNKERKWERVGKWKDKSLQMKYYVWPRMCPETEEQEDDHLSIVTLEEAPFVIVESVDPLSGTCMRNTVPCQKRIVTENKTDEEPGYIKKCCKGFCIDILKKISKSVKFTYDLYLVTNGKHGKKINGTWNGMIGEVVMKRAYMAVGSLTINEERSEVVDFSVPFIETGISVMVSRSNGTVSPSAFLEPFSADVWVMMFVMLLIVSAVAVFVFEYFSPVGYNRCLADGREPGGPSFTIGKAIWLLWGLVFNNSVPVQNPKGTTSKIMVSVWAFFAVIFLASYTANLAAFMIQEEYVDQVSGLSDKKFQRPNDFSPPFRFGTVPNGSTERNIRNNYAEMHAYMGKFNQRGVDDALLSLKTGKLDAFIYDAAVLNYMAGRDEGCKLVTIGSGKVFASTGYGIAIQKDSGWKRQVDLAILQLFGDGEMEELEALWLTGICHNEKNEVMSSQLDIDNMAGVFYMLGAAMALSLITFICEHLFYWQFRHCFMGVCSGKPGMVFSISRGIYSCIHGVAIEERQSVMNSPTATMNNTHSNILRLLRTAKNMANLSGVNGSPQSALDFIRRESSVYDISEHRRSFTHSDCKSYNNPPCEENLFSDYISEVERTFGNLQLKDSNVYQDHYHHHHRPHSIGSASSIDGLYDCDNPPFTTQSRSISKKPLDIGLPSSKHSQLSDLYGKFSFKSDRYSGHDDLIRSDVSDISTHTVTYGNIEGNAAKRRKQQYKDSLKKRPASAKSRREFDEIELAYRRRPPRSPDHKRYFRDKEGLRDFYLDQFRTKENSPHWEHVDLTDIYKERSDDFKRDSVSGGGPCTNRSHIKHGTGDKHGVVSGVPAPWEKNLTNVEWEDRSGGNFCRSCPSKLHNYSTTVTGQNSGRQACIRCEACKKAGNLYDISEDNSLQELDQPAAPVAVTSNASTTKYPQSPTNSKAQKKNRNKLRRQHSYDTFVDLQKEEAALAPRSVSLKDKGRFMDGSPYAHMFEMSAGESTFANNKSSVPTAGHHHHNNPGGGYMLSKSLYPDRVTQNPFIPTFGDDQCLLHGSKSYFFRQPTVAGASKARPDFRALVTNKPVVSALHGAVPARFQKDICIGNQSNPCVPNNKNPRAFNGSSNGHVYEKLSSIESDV
Description: For recording of GluN1/GluN2B NMDA receptors, HEK293T cells stably expressing GluN1 and GluN2B subunits were voltage‐clamped at −60 mV. […] The pipette solution contained (in mM):115 CsF, 10 CsCl, 10 HEPES and 10 BAPTA (pH 7.2 adjusted by CsOH). The bath solution contained (in mM): 140 NaCl, 2.8 KCl, 1 CaCl2, 10 HEPES and 20 sucrose (pH 7.4 adjusted with NaOH).

[2] = Plasma/tissue (kidney) distribution; type: in vivo; details: male, C57BL/6J, mouse, ip, mice (N = 3), 10 mg/kg i.p.
Procedure: Male C57BL/6J mice were used for both blood–brain penetration and plasma/tissue distribution studies, with mice assigned to three groups: 10 mg kg^−1 JX3212 (n = 3), 20 mg kg^−1 JX3212 (n = 3) for blood–brain penetration, and 10 mg kg^−1 JX3212 for plasma/tissue distribution (all administered via intraperitoneal injection), where mice in the blood–brain penetration groups were fasted for 12 h prior to drug administration and 2 h post‐administration; 1 h after drug administration, 0.2 mL of blood was collected from the retro‐orbital/orbital venous plexus into 1.5 mL heparinized tubes, centrifuged at 11 000 rpm for 5 min to obtain plasma (stored at −80 °C for blood–brain penetration groups), while whole brains were excised for blood–brain penetration groups and whole brains plus kidneys (rinsed with physiological saline, blotted dry on filter paper, and accurately weighed) for the plasma/tissue distribution group; plasma samples (20 µL) were mixed with 20 µL internal standard solution and 300 µL acetonitrile for protein precipitation, vortexed for 15 min, centrifuged at 3700 rpm for 15 min at 4 °C, and the supernatant was collected, whereas brain and kidney samples were homogenized in acetonitrile at 10× tissue weight (8000 rpm, 3 × 30 s), sonicated for 5 min, and processed identically to plasma samples; the concentrations of JX3212 in plasma and tissues were quantified by liquid chromatography–tandem mass spectrometry (LC−MS/MS), with lower limits of quantification set to 50 ng mL^−1 for plasma and 50 ng g^−1 for brain tissue.

mice [3] = experiment: Repeat-dose (14-day subacute) toxicity study
Procedure: The mice received daily treatments for 14 consecutive days and were monitored once daily for signs of toxicity. Individual body weights were measured daily throughout the observation period. At the end of this period, all mice were sacrificed and dissected. Macroscopic evaluation was performed, and the heart, liver, spleen, lungs, kidneys, and brain were excised for relative weight calculations. Representative organ fragments were embedded in formalin and paraffin, then fixed for subsequent histopathological analysis. Serum biochemical analyses included determination of creatinine, urea, alanine aminotransferase, and aspartate aminotransferase.

mice [4] = experiment: 21-day chronic administration: body weight, organ weight, serum biochemistry
[5] = 100 mg/kg, 14-day, individual animals
[6] = organ weight index, 100 mpk, 14-day, individual animals, 100 mg/kg
[7] = 10 mg/kg, 21-day chronic administration, individual animals
[8] = serum, 10 mg/kg, 21-day chronic administration, individual animals

In the case of `c1ccc2c(c1)oc1ccc(Nc3ccnc(NCCCN4CCOCC4)n3)cc12` [JX3212, N^4-(dibenzo[b,d]furan-2-yl)-N^2-(3-morpholinopropyl)pyrimidine-2,4-diamine], the IC50 [1] is reported as 23.7 µM, the “GLUN1/N2B inhibition, single recordings” value ([1]; concentration 10) is reported as 16.1554 and 31.4381 and 16.8072 and 24.8566 and the “GLUN1/N2B inhibition, single recordings” value ([1]; concentration 30) is reported as 75.9494 and 77.336 and 42.6087. For the same compound, the “GLUN1/N2B inhibition, single recordings” value ([1]; concentration 50) was 84.1069 and 85.4244 and 96.0913, the “GLUN1/N2B inhibition, single recordings” value ([1]; concentration 100 (unit not given)) was 91.8425 and 90.7749 and 99.6717 and 97.1777 and the “GLUN1/N2B inhibition, single recordings” value ([1]; concentration 300μ) was 98.8477 and 99.3957 and 98.8626. It also gave a concentration at 1 h ([2]; kidney, read-out: Kidney Calculated Concentration) of 18400 ± 681 ng/mL, a Kp at 1 h ([2]; kidney/plasma) of 78.9 ± 2.74 and a concentration at 1 h ([2]; plasma, read-out: Plasma Calculated Concentration) of 234 ± 14.4 ng/mL. For the same compound, the “histomorphology of liver, spleen, kidneys, HE staining (in words)” value (mice [3]; 100 mg kg−1 i.p., 14 days) was “no pronounced pathological changes”, the “serum creatine level (in words)” value (mice [3]; 100 mg kg−1 i.p., 14 days) was “slight decrease in creatine levels” and the “mortality, body weight, organ-to-body weight ratio (in words)” value (mice [3]; 100 mg kg−1 i.p., 14 days, n = 6) was “No mortality or significant changes in body weight”. The ALT (mice [3]; [5]) was 24 and 28 and 22 and 33 and 30 and 36, the AST (mice [3]; [5]) was 77 and 98 and 90 and 81 and the Cr (mice [3]; [5]) was 23 and 24 and 31 and 22. The Body weight (mice [3]; 100 mpk, day 1, individual animals) was 24.7 and 25 (2×) and 25.5, the Body weight (mice [3]; 100 mpk, day 2, individual animals) was 24.3 and 25 and 24.7 and 23.4 (2×) and 24.2 and the Body weight (mice [3]; 100 mpk, day 3, individual animals) was 25 (2×) and 23.6 and 23.7 and 24.2 and 23.8. For the same compound, the Body weight (mice [3]; 100 mpk, day 4, individual animals) was 23.4 and 25 and 24.7 and 25.4 and 24 (2×), the Body weight (mice [3]; 100 mpk, day 5, individual animals) was 25 and 23.3 and 24.7 (2×) and 25.4 and the Body weight (mice [3]; 100 mpk, day 6, individual animals, in g (unit assumed)) was 24.7 and 23.4 and 25 and 25.8 and 24.4. The Body weight (mice [3]; 100 mpk, day 7, individual animals, in g (unit assumed)) was 25.1 and 23.1 and 25.2 and 25.3 and 23.9 and 24.5, the Body weight (mice [3]; 100 mpk, day 8, individual animals) was 24.6 (2×) and 23.2 and 24 and 24.9 and 22.8 and the Body weight (mice [3]; 100 mpk, day 9, individual animals) was 23.2 and 23 and 24.8 (2×) and 23.5 and 25. The Body weight (mice [3]; 100 mpk, day 10, individual animals, in g (unit assumed)) was 23.6 and 22.9 and 24.4 and 24.1, the Body weight (mice [3]; 100 mpk, day 11, individual animals, in g (unit assumed)) was 24.4 and 23.3 and 23.8 and the Body weight (mice [3]; 100 mpk, day 12, individual animals, in g (unit assumed)) was 24.4 and 23.7 and 24.2 and 23.3. The Body weight (mice [3]; 100 mpk, day 13, individual animals) was 24.3 and 24.1 (2×) and 23.6 and 25.7 and 23.4, the Body weight (mice [3]; 100 mpk, day 14, individual animals, in g (unit assumed)) was 24.1 and 23.8 and 26.2 and 24.4 and 22.9 and 24 and the Brain (mice [3]; [6]) was 1.903 and 1.921 and 1.682 and 2.001 and 1.79 and 1.878. The Heart (mice [3]; [6]) was 0.4606 and 0.4848 and 0.4887 and 0.4129 and 0.4371 and 0.4527, the Kidney (mice [3]; [6]) was 1.532 and 1.538 and 1.4509 and 1.426 and 1.403 and 1.554 and the Liver (mice [3]; [6]) was 6.39 and 5.873 and 5.169 and 5.3375 and 6.082 and 6.251. The Lung (mice [3]; [6]) was 0.6629 and 0.6646 and 0.5455 and 0.5464 and 0.7241 and 0.5883, the Spleen (mice [3]; [6]) was 0.4787 and 0.4556 and 0.409 and 0.4522 and 0.473 and 0.3725 and the “body weight during 21-day chronic administration (in words)” value (mice [4]; 10 mg kg−1 per day, vs vehicle) was “no evident effect on body weight”. The “Kidney/Body Weight Ratio (%)” value (mice [4]; [7]) was 1.122% and 1.187% and 1.1008% and 0.9864% and 1.07% (2×) and 1.145% and 1.0748% and 1.06% and 1.171%, the “Liver/Body Weight Ratio (%)” value (mice [4]; [7]) was 5.072% and 4.477% and 4.872% and 4.814% and 4.623% and 5.084% and 4.1308% and 4.637% and 4.391% and 4.945% and the Body weight (mice [4]; 10 mg/kg, day 7, individual animals) was 24.2 (3×) and 24 and 25.6 and 25.4 and 23.8. The Body weight (mice [4]; 10 mg/kg, day 8, individual animals) was 24 and 25.9 and 24.2 (2×) and 24.4 and 25 and 26, the Body weight (mice [4]; 10 mg/kg, day 9, individual animals) was 25 and 24 and 26.3 and 25.6 (2×) and 24.7 and 24.1 and the Body weight (mice [4]; 10 mg/kg, day 10, individual animals) was 26.3 and 25.4 (2×) and 24.1 and 25 and 25.5. The “liver-to-body and kidney-to-body weight ratio (in words)” value (mice [4]; 21-day administration) was “no appreciable differences”, the “serum aspartate aminotransferase and urea levels (in words)” value (mice [4]; 21-day administration) was “comparable” and the “serum creatinine level (in words)” value (mice [4]; 21-day administration) was “marked decreases in creatinine levels”. The ALT (mice [4]; [8]) was 36 and 35 and 41 and 32 and 37 and 33 and 31 and 29, the AST (mice [4]; [8]) was 167 and 207 and 243 and 139 and 147 and 172 and 200 and 131 and 133 and 155 and the Cr (mice [4]; [8]) was 19 and 18 and 20 and 21 and 22 and 23. The Urea (mice [4]; [8]) was 5.59 and 3.68 and 6 and 5.19 and 5.88 and 6.46 and 5.16 and 5.73 and 5.29 and 5.71.
